In the supplement of paper PMC10307832:

Legend:
Test in all cases: relative viability (nuclei count vs DMSO), 5 days (fraction); higher = more cells survive
[1] = compound: CC1=CC(=NN1)NC2=CC(=NC(=N2)/C=C/C3=CC=CC=C3)N4CCN(CC4)C + CC1(C)CCC(c2ccc(Cl)cc2)=C(CN2CCN(c3ccc(C(=O)NS(=O)(=O)c4ccc(N[C@H](CCN5CCOCC5)CSc5ccccc5)c(S(=O)(=O)C(F)(F)F)c4)cc3)CC2)C1 [Navitoclax] (partner 0.5 µM)
In short: (§1)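 Values are medians from duplicate plates. Each reflects relative viability, defined as the nuclei count of treated wells over that of vehicle wells. Lung cancer cell lines in 1536-well plates were pin-tool dosed one day after seeding with one drug alone or with a fixed anchor-drug dose plus five library-drug doses (not always all listed) in √10 steps, then fixed, stained and imaged at 4× after 5 days.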

[2] = compound: CC1=CC(=NN1)NC2=CC(=NC(=N2)/C=C/C3=CC=CC=C3)N4CCN(CC4)C + COc1cc2c(Oc3ccc(NC(=O)C4(C(=O)Nc5ccc(F)cc5)CC4)cc3F)ccnc2cc1OCCCN1CCOCC1 [Foretinib] (partner 0.25 µM)
In short: as §1

Bortezomib + Foretinib = compound: CC(C)C[C@H](NC(=O)[C@H](Cc1ccccc1)NC(=O)c1cnccn1)B(O)O [Bortezomib] + COc1cc2c(Oc3ccc(NC(=O)C4(C(=O)Nc5ccc(F)cc5)CC4)cc3F)ccnc2cc1OCCCN1CCOCC1 [Foretinib] (partner 0.25 µM)
In short: as §1

Obatoclax + Vorinostat = compound: COC1=CC(c2cc3ccccc3[nH]2)=N/C1=C\c1[nH]c(C)cc1C [Obatoclax] + O=C(CCCCCCC(=O)Nc1ccccc1)NO [Vorinostat] (partner 1 µM)
In short: as §1

Cell Line | relative viability ([1]; first compound 0.08 µM) | relative viability ([1]; first compound 0.253 µM) | relative viability ([1]; first compound 0.8 µM) | relative viability ([1]; first compound 2.53 µM) | relative viability ([1]; first compound 8 µM) | relative viability ([2]; first compound 0.08 µM) | relative viability ([2]; first compound 0.253 µM) | relative viability ([2]; first compound 0.8 µM) | relative viability ([2]; first compound 2.53 µM) | relative viability ([2]; first compound 8 µM) | relative viability (Bortezomib + Foretinib; first compound 0.0002 µM) | relative viability (Bortezomib + Foretinib; first compound 0.000632 µM) | relative viability (Bortezomib + Foretinib; first compound 0.002 µM) | relative viability (Bortezomib + Foretinib; first compound 0.006325 µM) | relative viability (Bortezomib + Foretinib; first compound 0.02 µM) | relative viability (Obatoclax + Vorinostat; first compound 0.01 µM) | relative viability (Obatoclax + Vorinostat; first compound 0.03162 µM) | relative viability (Obatoclax + Vorinostat; first compound 0.1 µM) | relative viability (Obatoclax + Vorinostat; first compound 0.3162 µM) | relative viability (Obatoclax + Vorinostat; first compound 1 µM)
LOU-NH91 | 0.706 | 0.729 | 0.697 | 0.387 | 0.201 | 0.94 | 0.976 | 0.912 | 0.848 | 0.507 | 0.863 | 0.867 | 0.328 | 0.258 | 0.243 | 0.982 | 0.889 | 0.709 | 0.885 | 0.65
LU99A | 0.766 | 0.781 | 0.57 | 0.25 | 0.125 | 0.8 | 0.732 | 0.735 | 0.363 | 0.156 | 0.887 | 0.721 | 0.812 | 0.755 | 0.227 | 0.557 | 0.459 |  | 0.463 | 0.224
LXF-289 | 0.924 | 0.966 | 0.922 | 0.772 | 0.325 | 0.996 | 1.02 | 0.873 | 0.812 | 0.194 | 0.98 | 0.964 | 0.991 | 0.127 | 0.0671 | 0.714 | 0.725 | 0.798 | 0.775 | 0.601
NCI-H23 | 0.79 | 0.909 | 0.867 | 0.364 | 0.15 | 0.699 | 0.987 | 0.712 | 0.256 | 0.147 | 0.895 | 0.972 | 0.861 | 0.166 | 0.14 | 0.593 | 0.755 | 0.569 | 0.653 | 0.316
NCI-H322M | 1.18 | 1.41 | 1.09 | 0.802 | 0.318 | 0.947 | 1.03 | 0.934 | 0.363 | 0.239 | 0.894 |  | 0.773 | 0.654 | 0.327 | 0.845 | 0.799 | 1.2 | 0.966 | 0.945
NCI-H441 | 0.704 | 0.503 | 0.302 | 0.187 | 0.122 | 1.16 | 0.649 | 1.18 | 0.384 | 0.177 | 0.801 | 0.987 | 0.563 | 0.188 | 0.168 | 0.768 | 0.837 | 0.728 | 0.733 | 0.645
NCI-H460 | 1.07 | 1.58 | 0.952 | 0.0095 | 0.0091 | 1 | 1.1 | 1.04 | 0.477 | 0.0228 | 0.983 | 1.03 | 1.13 | 0.115 | 0.0294 | 0.706 | 0.717 | 0.692 | 0.103 | 0.0463
NCI-H520 | 0.985 | 1.12 | 0.889 | 0.198 | 0.127 | 0.669 | 0.843 | 0.788 | 0.534 | 0.185 | 0.871 | 0.773 | 0.58 | 0.184 | 0.148 | 0.685 | 0.712 | 0.764 | 0.542 | 0.315
NCI-H596 | 0.91 | 1.04 | 0.705 | 0.489 | 0.27 | 0.78 | 0.937 | 0.633 | 0.654 | 0.165 | 0.88 | 0.892 | 0.613 | 0.17 | 0.138 | 0.555 | 0.467 | 0.543 | 0.585 | 0.296
NCI-H647 | 1.05 | 1.38 | 1.07 | 0.0912 | 0.0329 | 1.14 | 1.23 | 1.27 | 0.8 | 0.104 | 0.904 | 1.3 | 1.25 | 0.0379 | 0.0377 | 0.667 | 0.523 | 0.652 | 0.304 | 0.161
NCI-H727 | 0.423 | 0.483 | 0.378 | 0.286 | 0.0872 | 0.823 | 0.916 | 0.679 | 0.512 | 0.272 | 0.809 | 0.694 | 0.93 | 0.603 | 0.169 | 1.18 | 1.14 | 1.29 | 1.05 | 1.3
NCI-H838 | 1.22 | 1.22 | 0.866 | 0.305 | 0.134 | 0.99 | 1.14 | 0.965 | 0.798 | 0.131 | 1 | 1 | 1.17 | 0.165 | 0.13 | 0.687 | 0.7 | 0.736 | 0.678 | 0.36
NCI-H1355 | 0.878 | 0.961 | 0.974 | 0.701 | 0.386 | 0.879 | 1.05 | 0.985 | 0.743 | 0.18 | 0.944 | 0.983 | 0.998 | 0.155 | 0.14 | 0.623 | 0.625 | 0.627 | 0.601 | 0.623
NCI-H1395 | 1.32 | 1.27 | 1.59 | 0.676 | 0.308 | 1.11 | 1.11 | 0.93 | 0.663 | 0.347 | 1.01 | 0.927 | 0.759 | 0.341 | 0.328 | 0.996 | 0.643 | 0.642 | 0.635 | 0.596
NCI-H1437 | 1.06 | 1.12 | 1.03 | 0.816 | 0.175 | 1.19 | 1.31 | 1.3 | 1.25 | 0.474 | 1.31 | 1.24 | 1.32 | 0.185 | 0.149 | 0.834 | 0.808 | 0.791 | 0.696 | 0.589
NCI-H1650 | 1.28 | 1.43 | 0.902 | 0.358 | 0.107 | 1.07 | 1.4 | 1.33 | 0.153 | 0.133 | 1.19 | 1.15 | 0.223 | 0.16 | 0.164 | 0.494 | 0.661 | 0.61 | 0.417 | 0.301
NCI-H1651 | 0.974 | 1.11 | 0.837 | 0.424 | 0.129 | 0.732 | 0.899 | 0.913 | 0.447 | 0.162 | 0.788 | 0.772 | 0.423 | 0.101 | 0.112 | 0.587 | 0.491 | 0.512 | 0.384 | 0.595
NCI-H1666 | 0.951 | 0.898 | 0.906 | 0.64 | 0.222 | 1.02 | 0.948 | 1 | 0.739 | 0.33 | 0.868 | 0.945 | 0.884 | 0.289 | 0.316 | 1.03 | 1.08 | 1.11 | 0.998 | 0.754
NCI-H1734 | 0.837 | 0.81 | 0.8 | 0.331 | 0.108 | 0.816 | 0.828 | 0.815 | 0.447 | 0.161 | 0.786 | 0.9 | 0.759 | 0.176 | 0.109 | 0.819 | 0.887 | 0.814 | 0.741 | 0.31
NCI-H1755 | 0.984 | 0.98 | 0.974 | 0.504 | 0.155 | 0.9 | 0.962 | 0.866 | 0.622 | 0.297 | 0.939 | 0.972 | 0.868 | 0.494 | 0.192 | 0.698 | 0.765 | 0.767 | 0.753 | 0.728
NCI-H1793 | 0.516 | 0.446 | 0.466 | 0.156 | 0.131 | 0.349 | 0.663 | 0.329 | 0.121 | 0.112 | 0.611 | 0.617 | 0.666 | 0.512 | 0.155 | 0.725 | 0.71 | 0.714 | 0.711 | 0.722
NCI-H1915 | 0.762 | 0.8 | 0.779 | 0.539 | 0.213 | 1.01 | 1.13 | 1.06 | 0.817 | 0.386 | 1.05 | 1.12 | 1.1 | 0.112 | 0.0806 | 0.543 | 0.426 | 0.501 | 0.481 | 0.538
NCI-H1944 | 1.04 | 1.08 | 1.03 | 0.866 | 0.266 | 0.916 | 0.949 | 0.853 | 0.535 | 0.216 | 0.791 | 0.818 | 0.87 | 0.724 | 0.199 | 0.519 | 0.484 | 0.57 | 0.561 | 0.527
NCI-H1975 | 0.977 | 1.12 | 1.08 | 0.616 | 0.134 | 0.928 | 1.02 | 0.795 | 0.326 | 0.128 | 0.927 | 0.926 | 0.132 | 0.104 | 0.107 | 0.674 | 0.775 | 0.73 | 0.735 | 0.788
NCI-H1993 | 0.94 |  | 0.78 | 0.576 | 0.489 | 0.754 | 0.911 | 0.763 | 0.594 | 0.447 | 0.802 | 0.755 | 0.912 | 0.648 | 0.479 | 0.907 | 0.847 | 0.857 | 1.08 | 0.812
NCI-H2009 | 1.19 | 1.09 | 1.13 | 1.12 | 0.212 | 1.22 | 1.22 | 1.23 | 0.493 | 0.217 | 1.14 | 1.21 | 1.23 | 0.237 | 0.0866 | 0.723 | 0.73 | 0.634 | 0.502 | 0.251
